From patent US20090209620A1, “Direct Reversal Of The Suppressive Function Of CD4+Regulatory T Cells Via Toll-Like Receptor 8 Signaling” (priority 2005, published 2009)
Entries after “also recorded” stand apart in the source; their conditions may differ. In the oligonucleotide strings, read from the 5' end, every base follows the letter of its sugar. An asterisk marks phosphorothioate; unmarked linkages are phosphodiester. Other units and linkages are bracketed, terminal groups are in braces. A string of capitals states the bases alone. d = 2'-deoxy (DNA)

Legend:
[1] = system: naturally occurring CD4+ CD25+ Treg cells; test: Reversal of suppressive function of naturally occurring CD4+CD25+ Treg cells (proliferation assay); format: cell-based; settings: sorted from fresh human PBMCs; anti-CD3-coated wells
Source text: Establishing Treg cell lines and purifying natural CD4^+ CD25^+ Treg cells CD4^+ Treg clones were established from CD4^+ tumor-infiltrating lymphocytes (TIL102 and TIL164) and maintained in RPMI 1640 medium containing 10% human AB serum and recombinant IL-2 (300 IU/ml) using methods well known in the art (See, e.g., H. Y. Wang et al., Immunity 20, 107-118 (2004)). Treg clones derived from TIL102 or TIL164 cells were pooled and designated Treg102 or Treg164. Naturally occurring CD4^+ CD25^+ Treg cells were obtained by sorting CD4^+ T cell populations from fresh PBMCs after staining with anti-CD4 and anti-CD25 antibodies. To obtain optimal expansion, the OKT3 expansion method was performed using methods well known in the art (See, e.g., H. Y. Wang et al., Immunity 20, 107-118 (2004)). T cell clones were maintained at a low IL-2 concentration (300 IU/ml). […]
The expression of CD4, CD25 and GITR on Treg cells was determined by FACS analysis after staining with specific antibodies (purchased from R&D Systems and BD Biosciences). […] After 3 days in culture, the cells were analyzed by FACS gating on the CFSE-labeled cells. […]
FIG. 2E: Both CD4^+ CD25^+ and CD25^− T cells were sorted after staining of freshly isolated human CD4^+ T cells with anti-CD4 and anti-CD25 antibodies. The purity of the sorted T cells was determined by FACS. […]

[2] = system: CD4+ Treg cells (Treg102, Treg164); test: Proliferation assay with dendritic cells: Treg suppression of naive CD4+ T cell proliferation ([3H]thymidine); format: cell-based, human; settings: with DCs; LPS 100 ng/ml, IL-6 100 ng/ml, IFN-α 100 ng/ml
Source text: (§1) Establishing Treg cell lines and purifying natural CD4^+ CD25^+ Treg cells CD4^+ Treg clones were established from CD4^+ tumor-infiltrating lymphocytes (TIL102 and TIL164) and maintained in RPMI 1640 medium containing 10% human AB serum and recombinant IL-2 (300 IU/ml) using methods well known in the art (See, e.g., H. Y. Wang et al., Immunity 20, 107-118 (2004)). Treg clones derived from TIL102 or TIL164 cells were pooled and designated Treg102 or Treg164. Naturally occurring CD4^+ CD25^+ Treg cells were obtained by sorting CD4^+ T cell populations from fresh PBMCs after staining with anti-CD4 and anti-CD25 antibodies. To obtain optimal expansion, the OKT3 expansion method was performed using methods well known in the art (See, e.g., H. Y. Wang et al., Immunity 20, 107-118 (2004)). T cell clones were maintained at a low IL-2 concentration (300 IU/ml). Melanoma cell lines and EBV-transformed B-cell lines used in this study were cultured in RPMI 1640 medium containing 10% FCS. Human embryonic kidney (HEK) 293 and Epstein-Barr virus (EBV)-transformed B cell lines were maintained in RPMI 1640 with 10% fetal calf serum (FCS).
A. Proliferation assay with Dendritic Cells (DCs): Näive CD4^+ T cells were purified from PBMCs using microbeads (Miltenvi Biotec). DCs were generated from PBMC-derived monocytes in the presence of IL-4 (500 ng/ml) and GM-CSF (800 ng/ml) for 7 days. 1×105 näive CD4^+ T cells were cultured with regulatory T cells at different ratios (1: 0.2, 1:0.1 and 1:0.05) in 200 ul of medium containing 2×104 of DCs and anti-CD3 antibody (100 ng/ml) plus one of the following TLR ligands or cytokines: CpG-A (3 ug/ml), CpG-B (3 ug/ml), LPS (100 ng/ml), TNF.-α (20 ng/ml), IFN-α (100 ng/ml), or IL-6 (100 ng/ml). After 56 h of culture, [3H]thymidine was added at a final concentration of 1 uCi/well, followed by an additional 16 h. of culture. The incorporation of [^3H]thymidine was measured with a liquid scintillation counter, using methods well known in the art (See, e.g., M. K. Levings et al., J. Exp. Med. 196, 1335-46 (2002)). All experiments were performed in triplicate.
Two CD4^+ Treg cell lines, designated Treg102 and Treg164, were generated with a panel of Treg cell clones derived from TIL102 and TIL164 cells. […] A functional proliferation assay was employed to examine whether CpG (a TLR9 ligand), LPS (a TLR4 ligand) or the cytokines IL-6 or IFN-α could regulate the suppressive activity of antigen specific human CD4^+ Treg cells in the presence of DCs. […]

[3] = system: antigen-specific Treg102 and Treg164 cells; test: TLR ligand assays: reversal of Treg suppression of naive CD4+ T cell proliferation; format: cell-based, human
Procedure: Näive CD4 T+cells were purified from PBMCs by using microbeads (Miltenvi Biotec). Näive CD4^+ T cells ([…]) were cultured with regulatory T cells at a ratio of 10:1 in OKT3 (2 ug/ml)-coated, U bottomed 96-well plates containing the following ligands: LPS (100 ng/ml), imiquimod (10 μg/ml), loxoribine (500 μM), poly(I:C) (25 μg/ml), ssRNA40/LyoVec (3 μg/ml), ssRNA33/LyoVec (3 μg/ml), pam3CSK4 (200 ng/ml) and flagellin (10 μg/ml) were purchased from Invivogene (San Diego, Calif.), while CpG-A (3 μg/ml), CpG-B (3 μg/ml) and Poly-G oligonucleotides (3 μg/ml) were synthesized in Integrated DNA Technologies, Inc (Coralville, Iowa). Functional assays were identical to those described above.
If the TLR8-MyD88-IRAK4 signaling pathway is necessary and sufficient for direct reversal of the suppressive function of Treg cells, it should be possible to produce that effect with natural ligands for human TLR8. For FIG. 4A-B, naive CD4^+ T cells were mixed with Treg102, Treg164 or naturally occurring CD4^+ CD25^+ Treg cells in anti-CD3 antibody-coated wells in the presence of different TLR ligands. Data are presented as means±SD and represent results from three independent experiments.

[4] = system: CD4+ Treg cells (Treg102, Treg164); test: Proliferation assay without DCs: Treg suppression of naive CD4+ T cell proliferation, anti-CD3-coated plates; format: cell-based, human; settings: absence of DCs; anti-CD3-coated plates; oligonucleotides 3 ug/ml in medium
Source text: as §1
B. Proliferation assay without DCs: 1×10^5 näive CD4 T cells were cultured with regulatory T cells at different ratios (1: 0.2, 1:0.1 and 1:0.05) in anti-CD3 mAb-coated (2 ug/ml) 96-well plates in the presence or absence of the following TLR ligands or cytokines: CpG-A (3 ug/ml), CpG-B (3 ug/ml), LPS (100 ng/ml), TNF.-α (20 ng/ml), IFN-α (100 ng/ml), or IL-6 (100 ng/ml). After 56 h of culture, [3H]thymidine was added at a final concentration of 1 uCi/well, followed by an additional 16 h of culture. The incorporation of [^3H]thymidine was measured with a liquid scintillation counter.
Näive CD4^+ T cell proliferation experiments were performed similar to those in FIG. 1A, but in the absence of DCs. […] The reversal effect of CpG-A (SEQ ID NO: 1) contrasts with the failure of CpG-B (SEQ ID NO: 2), LPS, TNF-α, IL-6 or IFN-α to block the suppressive activity of CD4^+ Treg cells against naive CD4^+ T cells (FIG. 1B).
To further define the CpG-A (SEQ ID NO: 1) sequences responsible for the observed reversal effect, CpG-NG (SEQ ID NO: 5) and Poly-G10 (SEQ ID NO: 6), were tested for their ability to reverse the suppressive function of Treg cells. Naive CD4^+ T cells were mixed with CD4^+ Treg cells in anti-CD3 antibody-coated 96-wells with 200 μl of medium containing CpG-NG (SEQ ID NO: 5), CpG-A (SEQ ID NO: 1) or Poly-G10 (SEQ ID NO: 6). The proliferation assay was conducted as described in FIG. 1. […] For the experiments shown in FIG. 2B, naive CD4^+ T cells were mixed with CD4^+ Treg cells in anti-CD3 antibody-coated 96-wells with 200 μl of medium containing Poly-A10 (SEQ ID NO: 7), Poly-T10 (SEQ ID NO: 9) or Poly-C10 (SEQ ID NO: 8), while the Poly-G10 (SEQ ID NO: 6) oligonucleotides served as a positive control.
A series of oligonucleotides with decreasing numbers of guanosine nucleosides was constructed to determine the minimal number required for the reversal effect. For the experiments in FIG. 2C, CD4^+ T cells were mixed with CD4^+ Treg cells in anti-CD3 antibody-coated 96-wells containing medium with protected phosphorothioate linked guanosine nucleoside containing oligonucleotides of various lengths, while the unprotected five guanosines (SEQ ID NO: 10) served as a control.

586mel human tumor cells = test: Human 586mel tumor model in Rag1-/- mice with adoptive transfer of TIL586 and Treg102 cells; format: in vivo; settings: 586mel s.c. day 0; CD8+ TIL586 plus Treg102 cells with oligonucleotide on day 3; n=6 mice per group
Procedure: Human 586mel tumor cells (5×106) in 100 μl of buffered saline were subcutaneously injected into Rag1^−/− mice (lacking T and B cells) or Rag 2 ^−/− γC ^−/− mice (lacking T, B and NK cells) on day 0. Tumor-specific CD8^+ TIL586 cells (2.5×107), which recognize and kill 586mel cells, were injected intravenously on day 3 with or without Treg102 cells (3×106) pretreated with Poly-G10 or Poly-T10. Tumor size was measured with calipers every 2-3 days. Tumor volume was calculated on the basis of two-dimensioned measurements. Tumor growth curves were compared with the Wilcoxon rank-sum test.
The data in FIG. 4A-B confirms that TLR8 serves as a receptor for synthetic guanosine containing oligonucleotides and natural ssRNA40 and ssRNA33 ligands derived from HIV-1 virus, and that its activation in endosomes by synthetic DNA or ssRNA ligands triggers a signaling pathway that can reverse the suppressive function of Treg cells. To study the guanosine containing oligonucleotide induced reversal of Treg cell function in vivo, a human tumor model was established by subcutaneously injecting 586mel human tumor cells into Rag1^−/− (T and B cell deficient) mice. […] Tumor volumes were measured and presented as mean±SD (n=6 mice per group). P value was determined between groups as indicated. […]

Compound | reversal of suppressive function of naturally occurring CD4+CD25+ Treg cells [1] | restoration of proliferative ability of naive CD4+ T cells in the presence of CD4+ Treg cells [2] | reversal of Treg cell-mediated suppression of naive CD4+ T cell proliferation [4] | other results
Poly-G5: Poly-G oligonucleotide with phosphorothioate linkages (DNA dG*dG*dG*dG*dG) | Reversal of suppressive function; also recorded: entirely reversed; also recorded: could be reversed | – | – | –
lipopolysaccharide [LPS] | – | did not restore the proliferative ability | failure | restoration of proliferation of naive CD4+ T cells in the presence of Treg cells ([3]; Treg102, Treg164 or naturally occurring CD4+CD25+ Treg cells (FIG. 4A-B)): failed to restore the proliferation of naive CD4^+ T cells
Poly-T10: control oligonucleotide with protected phosphorothioate backbone (DNA TTTTTTTTTT) | – | – | failed to reverse the suppressive function of Treg cells; also recorded: lacked the ability to reverse the suppressive activity of Treg cells | tumor growth / antitumor immunity (586mel human tumor cells): grew faster than in mice receiving 586mel cells alone
IFN-α | – | did not restore the proliferative ability | failure | –
CC(C)Cn1cnc2c(N)nc3ccccc3c21 [Imiquimod] | little or no effect | – | – | reversal of suppressive function of antigen-specific Treg cells ([3]; Treg102 and Treg164, naive T:Treg 10:1, OKT3-coated plates): partial reversal
IL-6: cytokine | – | did not restore the proliferative ability | failure | –
